Experimental findings from US20190304569A1, “DRUG TARGETING OF HUMAN INDOLEAMINE 2,3-DIOXYGENASE” (Albert Einstein College of Medicine, priority 2016, published 2019) are described below.

The target in the experiment is human indoleamine 2,3-dioxygenase (hIDO) (Homo sapiens, UniProt P14902). Briefly: hIDO enzyme activity in solution studies (binding to the Si site). It is filed as biochemical. The following applies: for effect of binding to the Si site on the enzyme activity: solution data. An excerpt: The existence of the Si site in hIDO was first proposed by us in 2009 based on solution studies (8). […] It is notable that for decades MitoC has been widely used as a chemotherapy drug for several types of cancer (9).
Chain of human indoleamine 2,3-dioxygenase (hIDO) (P14902 whole entry): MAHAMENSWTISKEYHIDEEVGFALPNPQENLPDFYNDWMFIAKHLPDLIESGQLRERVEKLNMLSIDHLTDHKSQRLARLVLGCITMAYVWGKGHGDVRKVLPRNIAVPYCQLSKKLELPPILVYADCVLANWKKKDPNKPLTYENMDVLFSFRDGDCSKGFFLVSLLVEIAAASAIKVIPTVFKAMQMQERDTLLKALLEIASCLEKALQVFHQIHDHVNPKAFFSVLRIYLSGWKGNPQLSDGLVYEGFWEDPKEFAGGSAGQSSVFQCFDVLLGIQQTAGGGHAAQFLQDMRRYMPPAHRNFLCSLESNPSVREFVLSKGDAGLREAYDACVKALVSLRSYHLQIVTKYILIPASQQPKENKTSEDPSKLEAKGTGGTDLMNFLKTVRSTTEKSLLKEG

As usually defined, the Ki is a measure of affinity in units of concentration, obtained from inhibition or displacement. For `CO[C@@]12[C@H](COC(N)=O)C3=C(C(=O)C(C)=C(N)C3=O)N1C[C@@H]1N[C@@H]12` [MitoC, Mitomycin C], the “effect of binding to the Si site on the enzyme activity” value is on record as “inhibiting the enzyme activity”. The same molecule displayed a Ki (uncompetitive inhibition of hIDO by binding to the Si site) of 25 µM.

As for `N[C@@H](Cc1c[nH]c2ccccc12)C(=O)O` [Trp, tryptophan], the “effect of binding to the Si site on the enzyme activity” value was “inhibits the enzyme activity”.
